Common to all, as to experiment: Antifungal susceptibility testing, pH 7.0/35° C., 1x10^3 cells/mL
Test [1] deals with C. albicans 516. It is filed as cell-based, Candida albicans. Here is the method: (§1) 2) Assay at pH 7.0/35° C. Incubation/(Candida Strains Only).
(§2) Based on several papers published during 1990-1993 regarding the standardization of testing procedures at multiple research centers, and the finding that, inoculum size, pH of media, and the temperature of incubation drastically affect the antifungal activity of several compounds, particularly in the Azole class of antifungals, an additional assay was configured at pH 7.0 for Candida albicans. [M. A. Pfaller et al, Antimicrobial Agents and Chemotherapy, 34, 1648-1654 (1990); F. C. Odds et al, Antimicrobial Agents and Chemotherapy, 36, 1727-1737 (1992); R. A. Cook et al, Antimicrobial Agents and Chemotherapy, 34, 1542-1545 (1990)]
(§3) The assay format is identical to the first one with the following modifications: C.albicans cells are diluted to 1×10^3 cells/ml into 2× buffered YNB (YNB buffered with 1.65 mM MOPS, pH 7.0, with the addition of 2% Dextrose and 0.08% casamino acids mixture, bio 101. inc,cat #10420-100). Incubation is carried out at 35° C. instead of 30° C., and cell growth is monitored at 590 nm at 24 and 48 hrs as described. All other aspects of the assay are identical. This assay was validated with amphotericin B, fluconazole, cilofungin (Ly-121019), Nikkomycin and terbinafine using the following Candida strains- (C.albicans, B311, C.parasilosis, C.tropicalis, C.lusitaniae, C.glabrata, and C. albicans 516)-Table II. All strains were from Dr. Kobayashi, Washington university.

Test [2] relates to C.albicans, B311. It is filed as cell-based. The settings on record: Candida albicans. Here is the method: as §1, §2, §3
The subject of test [3] is C.glabrata. It is filed as cell-based. The settings on record: Nakaseomyces glabratus. How it is done: as §1, §2, §3
For test [4], the system named is C.lusitaniae. It is filed as cell-based. The settings on record: Clavispora lusitaniae. How it is done:
as §1, §2, §3

The subject of test [5] is C.parasilosis. It is filed as cell-based. How it is done:
as §1, §2, §3

Test [6] deals with C.tropicalis. It is filed as cell-based. The settings on record: Candida tropicalis. How it is done:
as §1, §2, §3

Setting [7] is: Candida albicans, 516, pH 7.0/35° C./1x10^3 cells/mL, 48 hrs, read-out: EC50 - 48 HRS C.albicans (516).
Setting [8] is: B311, pH 7.0/35° C./1x10^3 cells/mL, 48 hrs, read-out: EC50 - 48 HRS C.albicans.
Where [9] appears, read: pH 7.0/35° C./1x10^3 cells/mL, 48 hrs, read-out: EC50 - 48 HRS C.glab.
The mark [10] stands for this setting: pH 7.0/35° C./1x10^3 cells/mL, 48 hrs, read-out: EC50 - 48 HRS C.lusi.
Setting [11] is: pH 7.0/35° C./1x10^3 cells/mL, 48 hrs, read-out: EC50 - 48 HRS C.para.
Where [12] appears, read: pH 7.0/35° C./1x10^3 cells/mL, 48 hrs, read-out: EC50 - 48 HRS C.trop.

Read-outs that look alike come from different tables or passages of the source. Starred links: 1 amine or outer side, 2 acyl side, 3 side chain; linkers in the order of their positions; H or OH if unused. Positions of bridges follow the written chain, without caps; N, C: chain ends. Non-standard residues stand in square brackets, D forms with d. Residues, ends and D or L forms follow the SMILES beside them. *: point of attachment. Orn(4R-OH,5R-OH) = O=C([C@H](C[C@@H](O)[C@@H](O)N[*:3])N[*:1])[*:2]; hTyr(3S-OH,4S-OH) = N[C@H](C(=O)O)[C@H](O)[C@@H](O)c1ccc(O)cc1; Pro(3S-OH,4S-Me) = C[C@H]1CN[C@H](C(=O)O)[C@H]1O; Benzoyl(4-octyloxy) = CCCCCCCCOc1ccc(C(=O)*)cc1; Hyp = O=C(O)[C@@H]1C[C@@H](O)CN1

`CCCCCCCCOc1ccc(C(=O)N[C@H]2C[C@@H](O)[C@@H](O)NC(=O)[C@@H]3[C@@H](O)[C@@H](C)CN3C(=O)[C@H]([C@@H](C)O)NC(=O)[C@H]([C@H](O)[C@@H](O)c3ccc(O)cc3)NC(=O)[C@@H]3C[C@@H](O)CN3C(=O)[C@H]([C@@H](C)O)NC2=O)cc1` [Ly 12109, cilofungin] ({Benzoyl(4-octyloxy)}-[Orn(4R-OH,5R-OH)]T[Hyp][hTyr(3S-OH,4S-OH)]T[Pro(3S-OH,4S-Me)]; lactam 1-C): the EC50 (usually the midpoint of the concentration-response curve) in test [1] (setting [7]) came out at 0.6 µM; in test [2] (setting [8]), 0.6 µM; in test [3] (setting [9]), 6.1 µM; in test [4] (setting [10]), 6.6 µM; in test [5] (setting [11]) it was 32 µM; in test [6] (setting [12]), 0.6 µM.
`C[C@@H]([C@H](N)C(=O)N[C@H](C(=O)O)[C@H]1O[C@@H](n2ccc(=O)[nH]c2=O)[C@H](O)[C@@H]1O)[C@H](O)c1ccc(O)cn1` [Nikkomycin]: the EC50 was 11 µM in test [1] (Candida albicans, 516, pH 7, read-out: EC50 - 48 HRS C.albicans (516)); 4.5 µM in test [2] (B311, pH 7, read-out: EC50 - 48 HRS C.albicans); over 100 µM in test [3] (pH 7, read-out: EC50 - 48 HRS C.glab.); 28 µM in test [4] (pH 7, read-out: EC50 - 48 HRS C.lusi.); 13 µM in test [5] (pH 7, read-out: EC50 - 48 HRS C.para); over 100 µM in test [6] (pH 7, read-out: EC50 - 48 HRS C.trop.).
On to `CN(C/C=C/C#CC(C)(C)C)Cc1cccc2ccccc12` [Terbinafine, terbinafine], for which the 50% effective concentration (EC50) is 3.2 µM in test [1] (setting [7]); 4.4 µM in test [2] (setting [8]); over 100 µM in test [3] (setting [9]); 0.4 µM in test [4] (setting [10]); 0.2 µM in test [5] (setting [11]); over 100 µM in test [6] (setting [12]).
